In a compilation of properties of binary mixtures (doi:10.1021/acs.jced.2c00096):

Assay: xn = mol fraction of the nth substance listed
Details: 100 kPa

CCCC[N+]1(C)CCCC1.O=S(=O)([O-])C(F)(F)F + O
Details | electrical conductivity [S/m] | viscosity [mPa·s]
288.15 K, x2 = 0.1203 | 0.173 | 196
288.15 K, x2 = 0.1956 | 0.21 | 151.5
288.15 K, x2 = 0.4836 | 0.458 | 56.8
288.15 K, x2 = 0.5819 | 0.603 | 40.25
288.15 K, x2 = 0.6794 | 0.78 | 27.75
288.15 K, x2 = 0.8612 | 1.43 | 10.36
288.15 K, x2 = 0.95 | 1.75 | 3.99
293.15 K, x2 = 0.0597 | 0.188 | 181.1
293.15 K, x2 = 0.1203 | 0.22 | 148.6
293.15 K, x2 = 0.1956 | 0.266 | 116.3
293.15 K, x2 = 0.3766 | 0.426 | 64.1
293.15 K, x2 = 0.4836 | 0.563 | 45
293.15 K, x2 = 0.5819 | 0.732 | 32.19
293.15 K, x2 = 0.6794 | 0.954 | 22.37
293.15 K, x2 = 0.7673 | 1.26 | 15.18
293.15 K, x2 = 0.95 | 2.07 | 3.36
298.15 K, x2 = 0.1203 | 0.276 | 114.9
298.15 K, x2 = 0.1956 | 0.334 | 91
298.15 K, x2 = 0.3197 | 0.453 | 61.1
298.15 K, x2 = 0.4836 | 0.68 | 36.38
298.15 K, x2 = 0.5819 | 0.886 | 26.17
298.15 K, x2 = 0.8612 | 2.04 | 7.14
303.15 K, x2 = 0.0597 | 0.299 | 108.4
303.15 K, x2 = 0.1203 | 0.343 | 90.6
303.15 K, x2 = 0.1956 | 0.406 | 72.5
303.15 K, x2 = 0.3197 | 0.545 | 49.4
303.15 K, x2 = 0.4836 | 0.808 | 29.8
303.15 K, x2 = 0.5819 | 1.04 | 21.59
303.15 K, x2 = 0.6794 | 1.37 | 15.22
303.15 K, x2 = 0.7673 | 1.79 | 10.5
303.15 K, x2 = 0.8612 | 2.38 | 6.05
308.15 K, x2 = 0.0597 | 0.364 | 86.1
308.15 K, x2 = 0.1956 | 0.488 | 58.6
308.15 K, x2 = 0.3197 | 0.647 | 40.48
308.15 K, x2 = 0.4836 | 0.953 | 24.76
308.15 K, x2 = 0.5819 | 1.23 | 18.04
308.15 K, x2 = 0.6794 | 1.6 | 12.8
308.15 K, x2 = 0.7673 | 2.08 | 8.89
308.15 K, x2 = 0.8612 | 2.77 | 5.14
308.15 K, x2 = 0.95 | 3.16 | 2.17
313.15 K, x2 = 0.0597 | 0.435 | 69.4
313.15 K, x2 = 0.1203 | 0.497 | 58.9
313.15 K, x2 = 0.3197 | 0.76 | 33.61
313.15 K, x2 = 0.3766 | 0.866 | 28.63
313.15 K, x2 = 0.4836 | 1.11 | 20.81
313.15 K, x2 = 0.6794 | 1.86 | 10.89
313.15 K, x2 = 0.7673 | 2.4 | 7.6
313.15 K, x2 = 0.8612 | 3.17 | 4.47
313.15 K, x2 = 0.95 | 3.56 | 1.91
318.15 K, x2 = 0.0597 | 0.52 | 56.7
318.15 K, x2 = 0.1956 | 0.68 | 39.82
318.15 K, x2 = 0.3766 | 1.01 | 24.15
318.15 K, x2 = 0.4836 | 1.28 | 17.69
318.15 K, x2 = 0.5819 | 1.63 | 13.03
318.15 K, x2 = 0.6794 | 2.14 | 9.36
318.15 K, x2 = 0.7673 | 2.75 | 6.57
318.15 K, x2 = 0.8612 | 3.61 | 3.9
318.15 K, x2 = 0.95 | 4 | 1.7
323.15 K, x2 = 0.1203 | 0.686 | 40.38
323.15 K, x2 = 0.3197 | 1.03 | 23.95
323.15 K, x2 = 0.3766 | 1.16 | 20.59
323.15 K, x2 = 0.4836 | 1.47 | 15.18
323.15 K, x2 = 0.7673 | 3.11 | 5.73
323.15 K, x2 = 0.8612 | 4.06 | 3.43
328.15 K, x2 = 0.0597 | 0.713 | 39.32
328.15 K, x2 = 0.1203 | 0.796 | 34.03
328.15 K, x2 = 0.1956 | 0.921 | 28.34
328.15 K, x2 = 0.3197 | 1.17 | 20.52
328.15 K, x2 = 0.4836 | 1.67 | 13.15
328.15 K, x2 = 0.5819 | 2.12 | 9.79
328.15 K, x2 = 0.6794 | 2.76 | 7.1
328.15 K, x2 = 0.7673 | 3.5 | 5.04
328.15 K, x2 = 0.8612 | 4.55 | 3.04
328.15 K, x2 = 0.95 | 4.93 | 1.37
333.15 K, x2 = 0.0597 | 0.83 | 33.27
333.15 K, x2 = 0.1203 | 0.918 | 28.94
333.15 K, x2 = 0.1956 | 1.05 | 24.27
333.15 K, x2 = 0.3197 | 1.33 | 17.75
333.15 K, x2 = 0.3766 | 1.48 | 15.39
333.15 K, x2 = 0.4836 | 1.88 | 11.49
333.15 K, x2 = 0.6794 | 3.09 | 6.26
333.15 K, x2 = 0.7673 | 3.91 | 4.46
333.15 K, x2 = 0.8612 | 5.05 | 2.71
333.15 K, x2 = 0.95 | 5.42 | 1.24
